Assays:
Type in all cases: in vivo
hindlimb ischemia = experiment: Rat hindlimb model of collateral development: blood flow during treadmill exercise (microspheres); details: for Blood Flow During exercise Calf (GPS): mean ± SE
Source text: The Rat hindlimb model is used to evaluate angiogenic properties of novel HPTPb inhibitors. Specifically to determine if there is enhanced blood flow to the collateral dependent region of the leg post ischemia when the animal is in an exercise challenged state. […] An initial surgery is done to create hindlimb ischemia and implant osmotic pumps essentially as previously described with minor alterations. […] Following induction, animals are transferred to a surgical mat and anesthesia is continued via a non-rebreathing circuit. A warming lamp is positioned above the rat and a rectal probe is placed to monitor the animal's body temperature. The groin areas bilaterally are clipped and prepared with alternating Betadine and alcohol scrubs (3×) and a sterile drape is placed over the rat. The left femoral artery is exposed through a skin incision and subsequently ligated in two positions 1 cm apart; distal to the inguinal ligament and proximal to the femoral circumflex artery. The skin is closed using either skin staples or Vetbond. The same procedure is repeated on the right side. […] Prior to implantation, osmotic pumps are filled with VEGF165 solution at a dose of 15 μg/kg/day, and primed overnight inside sterile saline beakers in a water bath (37° C.). Stretched PESO catheters coated with PPG (Poly propylene glycol Aldrich # 20-235-5) are attached using sterile technique and in accordance with manufacture's instructions the afternoon prior to surgery. For pump placement, an incision is made to expose the right jugular vein, an area is tunneled SubQ from the right side of the neck to the back and the pump is placed in the resulting SubQ pocket. The vessel is ligated with 4-0 silk, a cut is made in the vessel just distal to the tie and the catheter from the osmotic pump is threaded down stream (approx 2 cm) and secured with a second tie. The skin is closed in the same manner as above. Two weeks after the ligation surgery the rat underwent a second acute surgery to place indwelling catheters for microsphere measurements. Rats are anesthetized as described above. The animal is clipped, prepped, and EMLA cream is applied to each entry site. First an incision is made longitudinally at the ventral base of the tail using a 10 blade. A tapered PE 50 catheter is inserted approximately 3 cm into the ventral tail artery and anchored into place. The end of the catheter is then wrapped around the tail and tunneled SubQ over the back, exiting between the shoulder blades. Following tail artery cannulation, a midline neck incision is made to expose the left carotid artery for occlusive cannulation. A tapered PE 50 catheter is placed 3 cm into the carotid and the distal end is tunneled SubQ, exiting between the shoulder blades. The neck is closed with either skin stables or Vetbond and EMLA cream is applied. The exit site is closed around the catheters with a purse string suture stitch. The ends of the catheters are cauterized shut and the rat is allowed to recover from anesthesia for at least 4 hours. For blood flow measurements, rats are placed onto the treadmill and the catheters are connected to extension tubing via 22 gage male-male connectors. For microsphere withdrawals and blood pressure measurements, the tail artery catheter is connected to a syringe (coated with tween and heparin-), which is “T” Ed to a withdrawal pump and a pressure transducer. The carotid catheter is used for injecting the microspheres. The rat began running at speed 20 m/min and an elevation of 7°. […] The pump is set to stop at 90 seconds. The […] stopped, the extension lines are replaced and the animal's lines are flushed, and the animal allowed to rest. The syringe and lines are removed from the pump and the reference blood sample is place in a labeled tube for processing. […] At the completion of the second run, the animal is euthanized with 0.3 ml of Buthaneasia. Following euthanasia, tissues are removed, trimmed, weighed, recorded, and placed in marked tubes for processing. […]

[1] = Rat hindlimb model: body weight; details: mean ± SE, in g (unit assumed)
[2] = Rat hindlimb model: blood pressure and heart rate; details: for Blood Pressure Post-Exercise / Heart Rate Exercise / Heart Rate Post-Exercise / Heart Rate Pre-Exercise / Blood Pressure Exercise / Blood Pressure Pre-Exercise: mean ± SE; for Blood Pressure Pre-Exercise: two weeks after ligation
Source text: An initial surgery is done to create hindlimb ischemia and implant osmotic pumps essentially as previously described with minor alterations. […] Following induction, animals are transferred to a surgical mat and anesthesia is continued via a non-rebreathing circuit. A warming lamp is positioned above the rat and a rectal probe is placed to monitor the animal's body temperature. The groin areas bilaterally are clipped and prepared with alternating Betadine and alcohol scrubs (3×) and a sterile drape is placed over the rat. The left femoral artery is exposed through a skin incision and subsequently ligated in two positions 1 cm apart; distal to the inguinal ligament and proximal to the femoral circumflex artery. The skin is closed using either skin staples or Vetbond. The same procedure is repeated on the right side. […] Stretched PESO catheters coated with PPG (Poly propylene glycol Aldrich # 20-235-5) are attached using sterile technique and in accordance with manufacture's instructions the afternoon prior to surgery. For pump placement, an incision is made to expose the right jugular vein, an area is tunneled SubQ from the right side of the neck to the back and the pump is placed in the resulting SubQ pocket. The vessel is ligated with 4-0 silk, a cut is made in the vessel just distal to the tie and the catheter from the osmotic pump is threaded down stream (approx 2 cm) and secured with a second tie. The skin is closed in the same manner as above.
Two weeks after the ligation surgery the rat underwent a second acute surgery to place indwelling catheters for microsphere measurements. Rats are anesthetized as described above. The animal is clipped, prepped, and EMLA cream is applied to each entry site. First an incision is made longitudinally at the ventral base of the tail using a 10 blade. A tapered PE 50 catheter is inserted approximately 3 cm into the ventral tail artery and anchored into place. The end of the catheter is then wrapped around the tail and tunneled SubQ over the back, exiting between the shoulder blades. Following tail artery cannulation, a midline neck incision is made to expose the left carotid artery for occlusive cannulation. A tapered PE 50 catheter is placed 3 cm into the carotid and the distal end is tunneled SubQ, exiting between the shoulder blades. The neck is closed with either skin stables or Vetbond and EMLA cream is applied. The exit site is closed around the catheters with a purse string suture stitch. The ends of the catheters are cauterized shut and the rat is allowed to recover from anesthesia for at least 4 hours.
For blood flow measurements, rats are placed onto the treadmill and the catheters are connected to extension tubing via 22 gage male-male connectors. For microsphere withdrawals and blood pressure measurements, the tail artery catheter is connected to a syringe (coated with tween and heparin-), which is “T” Ed to a withdrawal pump and a pressure transducer. The carotid catheter is used for injecting the microspheres. The rat began running at speed 20 m/min and an elevation of 7°. One minute into the run the pump is turned on at a rate of 0.5 ml/min, ten seconds later 0.5 ml (1×10^6 spheres/mL) of florescent microspheres are infused into the carotid line followed by a 0.5 ml flush over 30 seconds. The pump is set to stop at 90 seconds. The tmill is stopped, the extension lines are replaced and the animal's lines are flushed, and the animal allowed to rest. The syringe and lines are removed from the pump and the reference blood sample is place in a labeled tube for processing. The withdrawal syringe and extension lines are flushed 3 times with 2% tween, waste is flushed the reference blood tube A new syringe and lines are place on the pump and the procedure is repeated with the animal running at a faster speed, (25 m/min) and a different microsphere color is injected. At the completion of the second run, the animal is euthanized with 0.3 ml of Buthaneasia.

[3] = continuous SubQ infusion High 15 mg/kg/d
[4] = continuous SubQ infusion Low 5 mg/kg/d
[5] = continuous SubQ infusion High 15 mg/kg/d, in mmHg (unit assumed)

With VEGF the “Blood Flow During exercise Calf (GPS)” value (hindlimb ischemia; VEGF 15 μg/kg/d) was 76 ± 1.1 ml/min/100 g and the “GPS blood flow over the Vehicle control groups” value (hindlimb ischemia; VEGF treatment groups) was “significant improvement”.
With CCc1csc([C@H](Cc2ccc(NS(=O)(=O)O)cc2)NC(=O)[C@H](Cc2ccccc2)NC(=O)OC(C)(C)C)n1 [4-{(S)-2-[(S)-2-(tert-Butoxycarbonylamino)-3-phenylpropanamido]-2-(4-ethylthiazol-2-yl)ethyl}phenylsulfamic acid] the “Initial Body Wt” value ([1]; High 15 mg/kg/d group) was 364 ± 4.8, the “Initial Body Wt” value ([1]; Low 5 mg/kg/d group) was 365 ± 4.8 and the “Ending Body Wt” value [1, 3] was 409 ± 5.5. For the same compound, the “Ending Body Wt” value [1, 4] was 413 ± 5.6, the “Calf blood flow as compared to vehicle” value (hindlimb ischemia; SubQ continuous infusion, both doses (5 mg/kg/d and 15 mg/kg/d)) was “significant improvement” and the “Blood Flow During exercise Calf (GPS)” value (hindlimb ischemia; [3]) was 75 ± 1.7 ml/min/100 g. For the same compound, the “Blood Flow During exercise Calf (GPS)” value (hindlimb ischemia; [4]) was 69 ± 2.0 ml/min/100 g, the “Calf blood flow response relative to VEGF” value (hindlimb ischemia; lower dose (5 mg/kg/d)) was “did not elicit a maximal VEGF response” and the “Blood pressures of the treatment groups” value ([2]; compared with VEGF and/or Vehicle groups) was “lower than the VEGF and/or Vehicle groups”. The “Blood Pressure Post-Exercise” value [2, 3] was 133 ± 3.7, the “Heart Rate Exercise” value [2, 3] was 456 ± 13.0 and the “Heart Rate Post-Exercise” value [2, 3] was 462 ± 14.8. The “Heart Rate Pre-Exercise” value [2, 3] was 428 ± 13.5, the “Blood Pressure Exercise” value [2, 5] was 144 ± 4.6 and the “Blood Pressure Pre-Exercise” value [2, 5] was 137 ± 4.5. The “Blood Pressure Exercise” value [2, 4] was 142 ± 3.2, the “Heart Rate Exercise” value [2, 4] was 487 ± 10.1 and the “Heart Rate Post-Exercise” value [2, 4] was 465 ± 18.8. The “Heart Rate Pre-Exercise” value [2, 4] was 429 ± 19.8, the “Blood Pressure Post-Exercise” value ([2]; continuous SubQ infusion Low 5 mg/kg/d, in mmHg (unit assumed)) was 135 ± 3.1 and the “Blood Pressure Pre-Exercise” value [2, 4] was 132 ± 3.9.

Source: patent publication US8258311B2, “Human protein tyrosine phosphatase inhibitors and methods of use” (Aerpio Therapeutics Inc., priority 2006, dated 2012)
